Laboratory results as given in PubChem BioAssay AID256 (DTP/NCI, 2004).
Values joined by “and” are separate entries in the source; they are usually repeats but may differ in a detail not shown here. Equal entries are not always repeated. Inconclusive results and toxic doses are left out. Rule for the calls: active = survival T/C of 150% or more; inactive = T/C below 125% in these data.

Test system: CD2F1 mice, L1210 leukemia ip, survival T/C
Assay: NCI In Vivo Anticancer Drug Screen. Data for tumor model L1210 Leukemia (intraperitoneal) in CD2F1 (CDF1) mice
Details: higher = longer survival
Procedure, shortened: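 Tumor-bearing mice (transplanted tumor) were split into treated and vehicle control groups, and the measured endpoint of each treated group was divided by that of its vehicle controls.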

[1] = endpoint: mean survival time, dose: 100.0 mg/kg/injection, schedule: Q01DX001 (ip), vehicle: saline with Tween-80
[2] = endpoint: mean survival time, dose: 100.0 mg/kg/injection, schedule: Q01DX009 (ip), vehicle: saline with Tween-80
[3] = endpoint: mean survival time, dose: 100.0 mg/kg/injection, schedule: Q04DX002 (ip), vehicle: saline with Tween-80
[4] = endpoint: mean survival time, dose: 100.0 mg/kg/injection, schedule: Q04DX003 (ip), vehicle: saline with Tween-80
[5] = endpoint: mean survival time, dose: 200.0 mg/kg/injection, schedule: Q01DX001 (ip), vehicle: saline with Tween-80
[6] = endpoint: mean survival time, dose: 200.0 mg/kg/injection, schedule: Q01DX009 (ip), vehicle: saline with Tween-80
[7] = endpoint: mean survival time, dose: 200.0 mg/kg/injection, schedule: Q04DX003 (ip), vehicle: saline with Tween-80
[8] = endpoint: mean survival time, dose: 400.0 mg/kg/injection, schedule: Q01DX001 (ip), vehicle: saline with Tween-80
[9] = endpoint: mean survival time, dose: 400.0 mg/kg/injection, schedule: Q01DX009 (ip), vehicle: saline with Tween-80
[10] = endpoint: mean survival time, dose: 400.0 mg/kg/injection, schedule: Q04DX003 (ip), vehicle: saline with Tween-80
[11] = endpoint: mean survival time, dose: 12.5 mg/kg/injection, schedule: Q01DX009 (ip), vehicle: saline with Tween-80
[12] = endpoint: mean survival time, dose: 25.0 mg/kg/injection, schedule: Q01DX009 (ip), vehicle: saline with Tween-80
[13] = endpoint: mean survival time, dose: 50.0 mg/kg/injection, schedule: Q01DX009 (ip), vehicle: saline with Tween-80
[14] = endpoint: median survival time, dose: 12.5 mg/kg/injection, schedule: Q01DX009 (ip), vehicle: saline with Tween-80
[15] = endpoint: median survival time, dose: 25.0 mg/kg/injection, schedule: Q01DX009 (ip), vehicle: saline with Tween-80
[16] = endpoint: mean survival time, dose: 25.0 mg/kg/injection, schedule: Q04DX003 (ip), vehicle: saline
[17] = endpoint: mean survival time, dose: 50.0 mg/kg/injection, schedule: Q04DX003 (ip), vehicle: saline
[18] = endpoint: mean survival time, dose: 100.0 mg/kg/injection, schedule: Q04DX003 (ip), vehicle: saline

Measured: T/C

OCc1c(Cl)cccc1Cl
inactive: [1] 104 % of control | [2] 96 % of control and 102 % of control | [3] 97 % of control and 105 % of control | [4] 103 % of control | [5] 102 % of control | [6] 95 % of control and 96 % of control | endpoint: mean survival time, dose: 200.0 mg/kg/injection, schedule: Q04DX002 (ip), vehicle: saline with Tween-80 97 % of control and 112 % of control | [7] 113 % of control | [8] 107 % of control | [9] 101 % of control and 104 % of control | endpoint: mean survival time, dose: 400.0 mg/kg/injection, schedule: Q04DX002 (ip), vehicle: saline with Tween-80 101 % of control and 109 % of control | [10] 103 % of control

Cc1cc(S(=O)(=O)F)cc(Cl)c1S
inactive: [3] 102 % of control

NCCSc1ccccc1
inactive: [11] 89 % of control | [12] 89 % of control | [13] 90 % of control and 108 % of control | [2] 87 % of control and 98 % of control

CCCCCCCC(=O)Nc1ccc(CC)cc1
inactive: [2] 107 % of control | [4] 95 % of control | [6] 105 % of control | [7] 103 % of control | [9] 107 % of control | [10] 93 % of control

Cc1ccc(CNc2ccccc2)cc1
inactive: endpoint: mean survival time, dose: 12.5 mg/kg/injection, schedule: Q01DX009 (ip), vehicle: other 103 % of control | endpoint: mean survival time, dose: 25.0 mg/kg/injection, schedule: Q01DX009 (ip), vehicle: other 108 % of control | endpoint: mean survival time, dose: 50.0 mg/kg/injection, schedule: Q01DX009 (ip), vehicle: other 96 % of control | endpoint: mean survival time, dose: 100.0 mg/kg/injection, schedule: Q04DX003 (ip), vehicle: other 97 % of control | endpoint: mean survival time, dose: 200.0 mg/kg/injection, schedule: Q04DX003 (ip), vehicle: other 89 % of control and 102 % of control | endpoint: mean survival time, dose: 400.0 mg/kg/injection, schedule: Q04DX003 (ip), vehicle: other 88 % of control and 96 % of control

O=[N+]([O-])c1ccc(/C=C/c2ccccc2)cc1
inactive: [2] 104 % of control | [4] 102 % of control | [6] 100 % of control | [7] 104 % of control | [9] 98 % of control | [10] 96 % of control

CCN(CC)CCC(=O)Nc1cccc2c1C(=O)c1c(c(O)c3ccccc3c1O)C2=O
inactive: endpoint: mean survival time, dose: 6.0 mg/kg/injection, schedule: Q04DX003 (ip), vehicle: saline with Tween-80 100 % of control | endpoint: mean survival time, dose: 12.0 mg/kg/injection, schedule: Q04DX003 (ip), vehicle: saline with Tween-80 100 % of control | endpoint: mean survival time, dose: 24.0 mg/kg/injection, schedule: Q04DX003 (ip), vehicle: saline with Tween-80 100 % of control | endpoint: mean survival time, dose: 48.0 mg/kg/injection, schedule: Q04DX003 (ip), vehicle: saline with Tween-80 103 % of control

COc1cc(/C=C/[N+](=O)[O-])cc(Br)c1OC
inactive: endpoint: median survival time, dose: 6.25 mg/kg/injection, schedule: Q01DX009 (ip), vehicle: saline with Tween-80 103 % of control | [14] 96 % of control | [15] 109 % of control

CC1(C)COC2(c3ccccc3)N1C(=C(Cl)Cl)OC(=O)C2(Cl)Cl (stereo not drawn)
inactive: endpoint: mean survival time, dose: 75.0 mg/kg/injection, schedule: Q01DX001 (ip), vehicle: saline with Tween-80 101 % of control | endpoint: mean survival time, dose: 150.0 mg/kg/injection, schedule: Q01DX001 (ip), vehicle: saline with Tween-80 90 % of control | endpoint: mean survival time, dose: 300.0 mg/kg/injection, schedule: Q01DX001 (ip), vehicle: saline with Tween-80 109 % of control

[CH3][Sb]([CH3])([CH3])([O]C(=O)CBr)[O]C(=O)CBr
inactive: [11] 102 % of control | [12] 100 % of control | [13] 96 % of control

CCCCCCCCCCCCCCCCOc1ccc(NS(=O)(=O)c2ccc(NC(C)=O)cc2)cc1
inactive: [1] 96 % of control | endpoint: mean survival time, dose: 100.0 mg/kg/injection, schedule: Q01DX009 (ip), vehicle: Klucel (hydroxypropylcellulose) (HPC) 109 % of control | [5] 91 % of control | endpoint: mean survival time, dose: 200.0 mg/kg/injection, schedule: Q01DX009 (ip), vehicle: Klucel (hydroxypropylcellulose) (HPC) 103 % of control | [8] 93 % of control | endpoint: mean survival time, dose: 400.0 mg/kg/injection, schedule: Q01DX009 (ip), vehicle: Klucel (hydroxypropylcellulose) (HPC) 98 % of control

CN(C)N=C1CCCCC1
inactive: endpoint: mean survival time, dose: 75.0 mg/kg/injection, schedule: Q01DX001 (ip), vehicle: saline 96 % of control | endpoint: mean survival time, dose: 150.0 mg/kg/injection, schedule: Q01DX001 (ip), vehicle: saline 98 % of control

CCN(CC)CCN1C(=O)c2cccc3cccc(c23)C1=O
inactive: [16] 102 % of control | [17] 98 % of control | [18] 102 % of control

C=CCc1ccc(OC(=O)Nc2ccc(S(=O)(=O)N(CCC)CCC)cc2)c(OC)c1
inactive: endpoint: mean survival time, dose: 100.0 mg/kg/injection, schedule: Q01DX001 (ip), vehicle: saline 94 % of control | endpoint: mean survival time, dose: 200.0 mg/kg/injection, schedule: Q01DX001 (ip), vehicle: saline 94 % of control | endpoint: mean survival time, dose: 400.0 mg/kg/injection, schedule: Q01DX001 (ip), vehicle: saline 94 % of control

COc1ccc(C2=CCCCc3cc(O)c(OC)cc32)cc1
inactive: [13] 100 % of control | [2] 100 % of control | [6] 100 % of control

Cn1c(=O)c2c(ncn2CCCNCC(O)c2ccc(O)c(O)c2)n(C)c1=O (stereo not drawn)
inactive: endpoint: mean survival time, dose: 12.5 mg/kg/injection, schedule: Q01DX005 (ip), vehicle: water 98 % of control | endpoint: mean survival time, dose: 25.0 mg/kg/injection, schedule: Q01DX005 (ip), vehicle: water 98 % of control | endpoint: mean survival time, dose: 50.0 mg/kg/injection, schedule: Q01DX005 (ip), vehicle: water 94 % of control | endpoint: mean survival time, dose: 100.0 mg/kg/injection, schedule: Q01DX005 (ip), vehicle: water 100 % of control

O=C1Cc2cccc(=O)c(O)c2C(=O)O1
inactive: [16] 96 % of control | [17] 104 % of control | [18] 94 % of control

C[n+]1c(/C=C/c2ccc([N+](=O)[O-])cc2)ccc2ccccc21
inactive: endpoint: mean survival time, dose: 6.25 mg/kg/injection, schedule: Q01DX009 (ip), vehicle: saline with Tween-80 98 % of control | [11] 102 % of control | endpoint: mean survival time, dose: 25.0 mg/kg/injection, schedule: Q04DX003 (ip), vehicle: saline with Tween-80 96 % of control

CC(=O)OCC(OC(C)=O)C1OC(OCc2ccccc2)C(OC(C)=O)C(OC(C)=O)C1OC(C)=O (stereo not drawn)
inactive: [1] 95 % of control | [5] 86 % of control | [8] 88 % of control

COc1ccc(-c2cc(-c3ccccc3)n[nH]2)cc1
inactive: [4] 93 % of control | [7] 97 % of control | [10] 93 % of control

S=c1sc2ccccc2n1CN1CCOCC1
inactive: [14] 97 % of control and 104 % of control | [15] 100 % of control | endpoint: median survival time, dose: 50.0 mg/kg/injection, schedule: Q01DX009 (ip), vehicle: saline with Tween-80 101 % of control and 106 % of control | endpoint: median survival time, dose: 100.0 mg/kg/injection, schedule: Q01DX009 (ip), vehicle: saline with Tween-80 101 % of control and 108 % of control | endpoint: median survival time, dose: 200.0 mg/kg/injection, schedule: Q01DX009 (ip), vehicle: saline with Tween-80 98 % of control and 100 % of control

CN1NC=Nc2c(SCc3ccccc3)ncnc21
inactive: endpoint: mean survival time, dose: 75.0 mg/kg/injection, schedule: Q01DX001 (ip), vehicle: other 98 % of control

C=C(CC(=O)OC)C(=O)O
inactive: endpoint: mean survival time, dose: 12.5 mg/kg/injection, schedule: Q01DX009 (ip), vehicle: saline 98 % of control | endpoint: mean survival time, dose: 25.0 mg/kg/injection, schedule: Q01DX009 (ip), vehicle: saline 98 % of control | endpoint: mean survival time, dose: 50.0 mg/kg/injection, schedule: Q01DX009 (ip), vehicle: saline 107 % of control | [4] 95 % of control | [7] 98 % of control | [10] 97 % of control
